Measured values as given in US20230131808A1, “PEGYLATED INTERFERON TAU AND COMPOSITIONS AND METHODS THEREOF” (priority 2020, published 2023).

Legend:
[1] = Cytotoxicity in Huh7 cells without virus infection (CellTiter Glo); details: human
Huh7 cells = experiment: as above
[2] = system: Human Coronavirus 229E (hCoV-229E); experiment: microbe, parasite or virus in culture; format: cell-based
hCoV-OC43 = experiment: HCoV OC43 CPE assay in Huh7 cells; format: cell-based; details: Betacoronavirus 1, Huh-7

## CCC(CC)COC(=O)[C@H](C)N[P@](=O)(OC[C@H]1O[C@@](C#N)(c2ccc3c(N)ncnn23)[C@H](O)[C@@H]1O)Oc1ccccc1 [Remdesivir]
[1]
  CC50 at 7 days: 17.2 µM
Huh7 cells; 0.046 μM
  Average Viability (%): 99.99%
Huh7 cells; 0.137 μM
  Average Viability (%): 101.58%
Huh7 cells; 0.412 μM
  Average Viability (%): 104.10%
Huh7 cells; 1.235 μM
  Average Viability (%): 102.28%
Huh7 cells; 3.704 μM
  Average Viability (%): 86.91%
Huh7 cells; 11.11 μM
  Average Viability (%): 56.84%
Huh7 cells; 33.33 μM
  Average Viability (%): 36.88%
Huh7 cells; 100.00 μM
  Average Viability (%): 21.77%

## NC(=O)c1ncn([C@@H]2O[C@H](CO)[C@@H](O)[C@H]2O)n1 [Ribavirin]
[2]
  IC50: 30 µM

## CCN(CC)CCCC(C)Nc1ccnc2cc(Cl)ccc12 (centres unmarked) [chloroquine phosphate]
hCoV-OC43
  EC50: 3.12 µM
